The results in this text go back to ChEMBL document CHEMBL3526103, “Prediction of in vivo hepatic clearance and half-life of drug candidates in human using chimeric mice with humanized liver” (Drug Metab Dispos, 2012).

The structures appear in SMILES notation.

Data set [1] is described as follows: Oral clearance in po dosed human. Type of data set: ADME, organism-based. To be noted: in vivo.
The nature of data set [2]: Unbound fraction in po dosed human plasma. Type of data set: ADME, organism-based.
Data set [3] is described as follows: Ratio of drug level in blood to plasma in po dosed human. Format: ADME, organism-based. To be noted: blood and plasma, read-out: Rblood_plasma.
Data set [4] in a line: Intrinsic clearance in human hepatocytes from chimeric mouse with humanized liver assessed per 10^6 cells at 10 uM after 0.25 to 2 hrs by LC-MS/MS method. Format: ADME, cell-based, Hepatocyte. Particulars: read-out: CLH.
Data set [5] can be described thus: Total clearance in chimeric mouse with humanized liver at 3 mg/kg, iv by LC-MS/MS method. To be noted: in vivo. Further details: dose 3 mg/kg, route intravenous. Format: ADME, organism-based.
A short description of a further data set: in vivo. To be noted: mouse, iv, 3 mg/kg.
Data set [6] in a line: Unbound fraction in iv dosed human plasma. Format: ADME, organism-based.
The nature of data set [7]: Total clearance in chimeric mouse with humanized liver at 0.3 mg/kg, iv by LC-MS/MS method. Format: ADME, organism-based. Also on record: dose 0.3 mg/kg, route intravenous. Particulars: in vivo.
Another data set in a line: clinical. To be noted: human, in vivo, iv.

What is called CL/F is clearance divided by bioavailability, as obtained after extravascular dosing. One may read the fraction unbound as free concentration divided by total concentration. High values mean weak binding, low ones extensive binding. Usually clearance stands for the volume of plasma or blood freed of the substance per unit of time. In general, half-life refers to the time needed for the level to fall by half in the phase considered. Read a low half-life as fast loss.

Description for clinical: Total clearance in iv dosed human

Turning to `CC1=C(CC(=O)O)c2cc(F)ccc2/C1=C\c1ccc([S+](C)[O-])cc1` (stereo not drawn), in data set [1], the CL/F came out at 3.3 mL/min/kg. Besides, the fraction unbound in [2] was found to be 0.069. In addition, the blood plasma ratio in data set [3] came to 1. The hepatocyte CLint at 10 µM in [4] was 2 µL/min/1e6 cells. In addition, in data set [5], the clearance was 5.6 mL/min/kg. Further, in the data set “in vivo”, the half-life is 72 min.
Compound `CC(=O)C[C@@H](c1ccccc1)c1c(O)c2ccccc2oc1=O` displayed an unbound share (fraction unbound) in data set [6] of 0.015. In addition, the hepatocyte CLint at 10 µM in data set [4] was determined as 1.2 µL/min/1e6 cells. Besides, the clearance was 0.2 mL/min/kg in data set [7] and 0.055 mL/min/kg in “clinical”.
In data set [1], `Nc1ncc2ncn(CCC(CO)CO)c2n1` [6-DEOXY PENCICLOVIR] came in with an apparent clearance (CL/F) of 118 mL/min/kg. In addition, in data set [2], the unbound share (fraction unbound) turned out to be 1. For the same compound, the blood plasma ratio in [3] amounted to 1.2. Further, the hepatocyte CLint at 10 µM in data set [4] is 5.3 µL/min/1e6 cells. Also, the clearance in [5] amounted to 71.2 mL/min/kg. Further, the half-life in the data set “in vivo” is 6 min.
In data set [6], `CC(C)(C)NCC(O)c1ccc(O)c(CO)c1` (stereo not drawn) [ALBUTEROL] returned a fraction unbound of 0.925.
For `Nc1ccc(S(=O)(=O)c2ccc(N)cc2)cc1` [DAPSONE], in data set [4], the hepatocyte CLint at 10 µM turned out to be 2.3 µL/min/1e6 cells. The compound further returned a clearance in data set [5] of 2.1 mL/min/kg.
For the compound `O=C(O)Cc1ccccc1Nc1c(Cl)cccc1Cl` [DICLOFENAC], the hepatocyte CLint at 10 µM in data set [4] amounted to 24.7 µL/min/1e6 cells. In [5], this compound came in with a clearance of 16.4 mL/min/kg. In the data set “in vivo”, this compound showed a half-life of 36 min.
For the compound `O=S(=O)(c1cccc2cnccc12)N1CCCNCC1` [FASUDIL], the fraction unbound in data set [6] turned out to be 0.51.
The compound `Nc1nnc(-c2cccc(Cl)c2Cl)c(N)n1` [LAMOTRIGINE] displayed a CL/F in [1] of 0.3 mL/min/kg. Also, the fraction unbound in data set [2] amounted to 0.45. The blood plasma ratio in [3] stood at 1. In [4], the hepatocyte CLint at 10 µM is 1.4 µL/min/1e6 cells. The clearance in [5] amounted to 1.4 mL/min/kg. In the data set “in vivo”, the half-life is 606 min.
Turning to `CN1CCN2c3ncccc3Cc3ccccc3C2C1` (stereo not drawn) [MIRTAZAPINE], in [4], the hepatocyte CLint at 10 µM stood at 6.3 µL/min/1e6 cells. In data set [5], this compound came in with a clearance of 30.4 mL/min/kg.
Taken in the same sequence, the figures for `CCN(C(C)=O)c1cccc(-c2ccnc3c(C#N)cnn23)c1` [ZALEPLON] were 2.3 µL/min/1e6 cells and 48.1 mL/min/kg.
